Data reported in publication PMC11311998, “AR71, Histamine H3 Receptor Ligand—In Vitro and In Vivo Evaluation (Anti-Inflammatory Activity, Metabolic Stability, Toxicity, and Analgesic Action)” (International Journal of Molecular Sciences, 2024).

Experiments:
SH-SY5Y cells [1] = format: cell-based, human; settings: rotenone alone 6.25 μM, 24 h
Protocol: To test neuroprotective activity, SH-SY5Y cells were pre-treated for 1 h with various concentrations of AR71, after which rotenone (6.25 μM) was added and the cells were cultured for another 24 h. […] Co-treatment with AR71 protected cells from the toxic effect of rotenone, resulting in LDH leakage ranging from 10 to 22% only.
The protective effect of AR71 against rotenone-induced toxicity in SH-SY5Y cells was assessed by measuring LDH release. SH-SY5Y cells (6 × 10^3 cells/100 μL/well) were seeded in black 96-well plates Nunclon^TM Delta Surface no. 137101 (ThermoFischer Scientific, Waltham, MA, USA) and cultured overnight. The next day, the medium was removed and replaced with a fresh one with an increasing concentration of AR71 (0.0975–50 μM). After 1 h of compound pre-treatment, the neurotoxin rotenone (6.25 μM) was added, and the cells were cultured for another 24 h. For the negative and positive controls, cells were treated with 0.1% DMSO and 6.25 μM of rotenone alone, respectively. The cells treated with the compound alone were used to compare the effect with those co-treated with rotenone. After 24 h, the level of LDH leakage was measured by the CytoTox-ONE™ Homogeneous Membrane Integrity Assay (Promega, Madison, WI, USA) following the manufacturer’s protocol. Briefly, 100 μL of CytoTox-ONE™ reagent (Promega, Madison, WI, USA) was added to each well, and the cells were incubated for 10 min at room temperature protected from light. The fluorescence was measured using the multimode plate reader Tecan Spark (Tecan, Männedorf, Switzerland) with an excitation wavelength of 560 nm and an emission wavelength of 590 nm.

SH-SY5Y cells [2] = experiment: mitochondrial membrane potential (JC-10); format: cell-based, human; settings: 50 μM, 3 h
Protocol: Neurotoxin-like rotenone induces oxidative stress inside cells that might influence mitochondrial membrane potential (MMP). Maintaining unaffected MMP is essential for neuroprotection. In our study, we tested the effect of AR71 on MMP in the presence and absence of rotenone.
Next, the effect of AR71 (0.78 μM) when co-treated with rotenone was tested; 1 μM carbonyl cyanide m-chlorophenylhydrazone (CCCP) was used as a positive control.
The MMP was measured by a commercially available kit (Sigma Aldrich, MAK159, for live cells) that utilises a cationic, lipophilic dye JC-10. It allows for ratiometric analysis of mitochondrial membrane potential, where a shift from orange (λEX/λEM: 540 nm/590 nm) to green fluorescence (λEX/λEM: 490 nm/525 nm) is indicative of compromised mitochondria. For this assay, the SH-SY5Y cells (1 × 10^4 cells/well) were seeded in a black-sided clear bottom 96-well plate (Thermo Scientific Nunclon^TM Delta Surface no. 137101, Denmark) in a complete culture medium. First, to choose the optimal concentration of rotenone in this assay, a dose–response effect of rotenone (0.05, 0.5, 5, 50 μM) was studied. Next, the cells were pre-treated with AR71 (0.78 μM) for 1 h before rotenone stimulation (50 μM) for another 3 h. […] The positive control was carbonyl cyanide m-chlorophenylhydrazone (CCCP; 1 μM)—uncoupling agent on the proton gradient. After incubation, 50 μL/well of the JC-10 dye loading solution was added to each well with cells. The plate was incubated for 45 min in the incubator. Then, 50 μL/well of Assay Buffer B was added to each well, and the fluorescence was monitored immediately. The red/green fluorescence intensity ratio was used to calculate the results.

[3] = tested on: rat models of neuropathic pain; design: method as in PMID 18164820; settings: surgically or virus-induced; cited from earlier work

Row | Structure (SMILES) | LDH leakage vs control cells (SH-SY5Y cells [1]) | reduction of MMP compared with control cells (SH-SY5Y cells [2]) | efficacy in rat models of neuropathic pain [3]
1 | C=C(C)[C@H]1Cc2c(ccc3c2O[C@@H]2COc4cc(OC)c(OC)cc4[C@@H]2C3=O)O1 [rotenone, reference compound] | twice as much LDH leakage as control cells | 67% | –
2 | CNC(=O)c1ccc(Oc2ccc3c(c2)CCN(C2CCC2)CC3)nc1 [GSK189254] | – | – | effective
3 | CC(C)N1CCCN(C(=O)C2CCN(c3ccc(C(F)(F)F)nc3)CC2)CC1 [GSK334429] | – | – | effective
